Key:
[1] = target: Met (phospho-Met, HGF-stimulated PC-3 prostate cancer cells) (Homo sapiens (Human), UniProt P08581); experiment: Met autophosphorylation ELISA in PC-3 cells (Example F); format: cell-based; details: cellular activity; Met autophosphorylation ELISA in PC-3 cells; read-out: c-Met IC50
Procedure, shortened: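 Compounds were tested on HGF-stimulated PC-3 cells. After 24 h culture and 3 h serum starvation, cells got compound for 1 h and 100 ng/mL HGF for 10 min, and Met tyrosine phosphorylation was measured by ELISA.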

[2] = target: Mer (phospho-Mer, MERTK-transfected 293A cells) (Homo sapiens (Human), UniProt Q12866); experiment: Mer autophosphorylation ELISA in transient transfected 293A cells (Example H); format: cell-based; details: cellular activity; Mer autophosphorylation ELISA in transient transfected 293A cells
Chain of Mer (phospho-Mer, MERTK-transfected 293A cells) (Q12866 21-999): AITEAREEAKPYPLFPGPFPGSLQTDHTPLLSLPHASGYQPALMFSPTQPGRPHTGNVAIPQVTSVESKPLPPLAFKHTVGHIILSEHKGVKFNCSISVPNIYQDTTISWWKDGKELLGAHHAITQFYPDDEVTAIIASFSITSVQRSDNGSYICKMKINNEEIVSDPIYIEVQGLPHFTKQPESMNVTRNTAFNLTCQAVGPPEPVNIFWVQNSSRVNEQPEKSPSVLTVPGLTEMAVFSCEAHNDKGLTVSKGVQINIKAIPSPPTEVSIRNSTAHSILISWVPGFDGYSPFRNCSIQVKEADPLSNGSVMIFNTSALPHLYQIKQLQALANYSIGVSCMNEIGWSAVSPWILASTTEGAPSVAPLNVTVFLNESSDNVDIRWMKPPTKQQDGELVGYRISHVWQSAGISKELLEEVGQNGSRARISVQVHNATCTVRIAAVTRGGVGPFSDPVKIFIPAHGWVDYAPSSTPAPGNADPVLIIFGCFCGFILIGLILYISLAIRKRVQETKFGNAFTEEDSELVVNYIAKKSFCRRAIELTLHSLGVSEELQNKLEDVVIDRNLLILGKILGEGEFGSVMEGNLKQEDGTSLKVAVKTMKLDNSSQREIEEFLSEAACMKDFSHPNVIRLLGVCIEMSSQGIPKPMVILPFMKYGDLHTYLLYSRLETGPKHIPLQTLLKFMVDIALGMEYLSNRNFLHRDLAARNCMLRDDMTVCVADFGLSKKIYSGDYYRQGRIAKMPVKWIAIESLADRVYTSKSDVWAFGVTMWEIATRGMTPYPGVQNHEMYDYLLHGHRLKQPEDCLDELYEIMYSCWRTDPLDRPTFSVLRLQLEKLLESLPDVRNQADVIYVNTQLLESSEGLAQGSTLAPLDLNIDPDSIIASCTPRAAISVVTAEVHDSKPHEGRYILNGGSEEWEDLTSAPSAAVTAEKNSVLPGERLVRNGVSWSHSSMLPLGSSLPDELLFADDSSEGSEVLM
Procedure, shortened: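 Human MERTK transiently transfected into 293A cells; compounds as 8-point dose curve in serum-free medium (0.3% DMSO final), 1 h. Lysates assayed by phospho-Mer sandwich ELISA against phospho-Mer standard; DMSO = 100%, reference inhibitor = 0% activity; IC50 from 4-parameter logistic fit.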

[3] = target: Human MET (residues 956-1390) (Homo sapiens (Human), UniProt P08581); experiment: Human Met kinase assay, HTRF KinEase (Example D-2); format: biochemical; details: protocol of Example D-2 (other compounds); read-out: c-Met IC50
Chain of Human MET (residues 956-1390) (P08581 956-1390): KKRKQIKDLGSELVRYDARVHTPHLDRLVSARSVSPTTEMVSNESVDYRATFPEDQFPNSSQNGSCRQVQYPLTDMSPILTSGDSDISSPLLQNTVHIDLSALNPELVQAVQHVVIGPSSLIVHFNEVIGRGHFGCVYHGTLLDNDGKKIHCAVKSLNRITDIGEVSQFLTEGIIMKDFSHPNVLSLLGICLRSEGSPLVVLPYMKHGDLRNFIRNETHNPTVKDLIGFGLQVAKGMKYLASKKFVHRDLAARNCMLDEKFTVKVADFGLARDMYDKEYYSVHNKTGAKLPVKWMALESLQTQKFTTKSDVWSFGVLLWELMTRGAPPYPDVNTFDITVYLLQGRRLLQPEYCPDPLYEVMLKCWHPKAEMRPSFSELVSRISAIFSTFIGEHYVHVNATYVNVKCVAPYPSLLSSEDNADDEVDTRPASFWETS
Procedure, shortened: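 HTRF KinEase assay on MET residues 956-1390 (0.1 ng/well) in buffer with 5 mM MgCl2, 1 mM DTT and 1 mM MnCl2, with biotinylated peptide substrate, ATP at Km, 10 compound concentrations and 3% DMSO final, run 40 min at room temperature. The […] signal was normalized to DMSO and to 1 μM reference compound, and IC50 came from a 4-parameter logistic fit.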

[4] = target: Human MER (residues 528-999) (Homo sapiens (Human), UniProt Q12866); experiment: Human Mer kinase assay, HTRF KinEase (Example C-2); format: biochemical; details: protocol of Example C-2 (other compounds)
Chain of Human MER (residues 528-999) (Q12866 528-999): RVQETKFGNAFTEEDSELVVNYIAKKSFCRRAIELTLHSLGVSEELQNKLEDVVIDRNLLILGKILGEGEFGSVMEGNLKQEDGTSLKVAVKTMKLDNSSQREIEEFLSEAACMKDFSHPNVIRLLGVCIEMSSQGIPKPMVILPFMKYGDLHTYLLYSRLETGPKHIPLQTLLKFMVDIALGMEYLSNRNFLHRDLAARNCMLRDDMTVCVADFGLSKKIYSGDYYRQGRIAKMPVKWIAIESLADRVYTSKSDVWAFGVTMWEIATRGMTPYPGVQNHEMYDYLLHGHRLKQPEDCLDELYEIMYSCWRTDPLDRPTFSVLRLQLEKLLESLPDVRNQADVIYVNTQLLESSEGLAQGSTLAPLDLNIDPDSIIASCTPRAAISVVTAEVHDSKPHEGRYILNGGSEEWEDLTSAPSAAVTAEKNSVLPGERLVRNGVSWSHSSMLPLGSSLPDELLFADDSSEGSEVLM
Procedure, shortened: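 HTRF KinEase TK assay with MER 528-999 (1 ng/well) in enzymatic buffer plus 5 mM MgCl2 and 1 mM DTT, biotinylated peptide substrate and ATP at Km (40 μM), 3% DMSO final, 60 min at room temperature. Stopped with EDTA detection mix (SA-XL665, TK antibody-Eu3+), read at 665/620 nm after 60 min; IC50 from 10-point 4-parameter fit, normalized to DMSO and 1 μM reference.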

Chain of Met (phospho-Met, HGF-stimulated PC-3 prostate cancer cells) (P08581 25-1390): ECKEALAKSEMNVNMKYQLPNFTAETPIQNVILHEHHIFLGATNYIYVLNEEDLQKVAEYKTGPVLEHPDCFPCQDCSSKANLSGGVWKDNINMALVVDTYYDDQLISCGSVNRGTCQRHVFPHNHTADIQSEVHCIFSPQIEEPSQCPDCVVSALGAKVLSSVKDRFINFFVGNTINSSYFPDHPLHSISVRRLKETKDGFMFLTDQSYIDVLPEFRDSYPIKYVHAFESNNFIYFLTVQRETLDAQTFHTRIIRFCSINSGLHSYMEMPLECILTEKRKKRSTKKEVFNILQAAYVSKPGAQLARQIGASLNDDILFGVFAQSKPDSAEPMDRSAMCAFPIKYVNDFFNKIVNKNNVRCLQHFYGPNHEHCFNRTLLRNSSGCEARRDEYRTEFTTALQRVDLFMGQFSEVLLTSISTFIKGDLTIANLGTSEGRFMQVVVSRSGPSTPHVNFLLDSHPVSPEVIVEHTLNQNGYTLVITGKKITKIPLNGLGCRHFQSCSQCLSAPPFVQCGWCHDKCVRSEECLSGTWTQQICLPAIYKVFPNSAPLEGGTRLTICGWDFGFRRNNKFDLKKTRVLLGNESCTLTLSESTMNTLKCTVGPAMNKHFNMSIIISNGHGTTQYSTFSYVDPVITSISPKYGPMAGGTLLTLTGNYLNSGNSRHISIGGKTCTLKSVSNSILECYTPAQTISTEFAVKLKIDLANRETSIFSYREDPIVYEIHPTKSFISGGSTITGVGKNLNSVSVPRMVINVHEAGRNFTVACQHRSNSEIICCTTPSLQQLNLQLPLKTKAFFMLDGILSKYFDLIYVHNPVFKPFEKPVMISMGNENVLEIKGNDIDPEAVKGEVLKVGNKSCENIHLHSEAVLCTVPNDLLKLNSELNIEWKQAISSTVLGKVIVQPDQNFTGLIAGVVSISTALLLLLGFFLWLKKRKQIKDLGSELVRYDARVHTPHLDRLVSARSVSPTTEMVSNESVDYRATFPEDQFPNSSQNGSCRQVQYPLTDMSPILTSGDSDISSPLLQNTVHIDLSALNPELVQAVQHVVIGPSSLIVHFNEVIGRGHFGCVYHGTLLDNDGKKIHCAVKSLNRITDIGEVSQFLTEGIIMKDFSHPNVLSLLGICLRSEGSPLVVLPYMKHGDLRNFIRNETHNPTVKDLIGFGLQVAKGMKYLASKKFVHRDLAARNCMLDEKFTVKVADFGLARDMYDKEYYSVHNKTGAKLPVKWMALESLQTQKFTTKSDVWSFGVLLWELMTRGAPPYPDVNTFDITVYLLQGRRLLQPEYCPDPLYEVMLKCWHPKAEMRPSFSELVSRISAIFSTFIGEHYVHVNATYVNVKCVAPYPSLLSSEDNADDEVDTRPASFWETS

Row | IC50 [1] [nM] | IC50 [2] [nM] | IC50 [3] [nM] | IC50 [4] [nM] | Compound
1 | < 100 | < 100 | < 100 | < 100 | COc1ccc2nccc(Oc3ccc(NC(=O)c4cnc(C)c(-c5ccc(F)cc5)c4O)cc3)c2n1 [Compound 342, 5-(4-fluorophenyl)-4-hydroxy-N-[4-[(6-methoxy-1,5-naphthyridin-4-yl)oxy]phenyl]-6-methylpyridine-3-carboxamide]
2 | < 100 | < 100 | < 100 | < 100 | COc1cc2nccc(Oc3ncc(NC(=O)c4cn(C5CN(C)C5)cc(-c5ccc(F)cc5)c4=O)cc3F)c2cc1OC [Compound 400, N-[6-(6,7-dimethoxyquinolin-4-yl)oxy-5-fluoropyridin-3-yl]-5-(4-fluorophenyl)-1-(1-methylazetidin-3-yl)-4-oxopyridine-3-carboxamide]
3 | < 100 | < 100 | < 100 | < 100 | Cc1ccc(C(=O)Nc2ccc(Oc3ccnc4ccc(OCCN(C)C)nc34)c(F)c2)c(=O)n1-c1ccc(F)cc1 [Compound 353, N-[4-[[6-[2-(dimethylamino)ethoxy]-1,5-naphthyridin-4-yl]oxy]-3-fluorophenyl]-1-(4-fluorophenyl)-6-methyl-2-oxopyridine-3-carboxamide]
4 | < 100 | < 100 | > 300 | < 100 | COc1cc2nccc(Oc3ccc(NC(=O)c4cn(C)c(C)c(-c5ccc(F)cc5)c4=O)c(F)c3)c2nc1OC [Compound 389, N-[4-[(6,7-dimethoxy-1,5-naphthyridin-4-yl)oxy]-2-fluorophenyl]-5-(4-fluorophenyl)-1,6-dimethyl-4-oxopyridine-3-carboxamide]
5 | < 100 | < 100 | < 100 | < 100 | COc1cc2nccc(Oc3ncc(NC(=O)c4cn(C5CC5)cc(-c5ccc(F)cc5)c4=O)cc3F)c2cc1OC [Compound 399, 1-cyclopropyl-N-[6-(6,7-dimethoxyquinolin-4-yl)oxy-5-fluoropyridin-3-yl]-5-(4-fluorophenyl)-4-oxopyridine-3-carboxamide]
6 | < 100 | < 100 | < 100 | < 100 | COc1cc2nccc(Oc3ccc(NC(=O)c4cc(C)c(C)n(-c5ccc(F)cc5)c4=O)cc3F)c2nc1OC [Compound 370, N-[4-[(6,7-dimethoxy-1,5-naphthyridin-4-yl)oxy]-3-fluorophenyl]-1-(4-fluorophenyl)-5,6-dimethyl-2-oxopyridine-3-carboxamide]
7 | < 100 | < 100 | < 100 | < 100 | COc1cc2nccc(Oc3cc(F)c(NC(=O)c4cn(C)c(C)c(-c5ccc(F)cc5)c4=O)cc3F)c2nc1OC [Compound 391, N-[4-[(6,7-dimethoxy-1,5-naphthyridin-4-yl)oxy]-2,5-difluorophenyl]-5-(4-fluorophenyl)-1,6-dimethyl-4-oxopyridine-3-carboxamide]
8 | < 100 | < 100 | 100 to 300 | < 100 | COc1ccc2nccc(Oc3ccc(NC(=O)c4c(C)cc(C)n(-c5ccc(F)cc5C)c4=O)cc3F)c2n1 [Compound 296, N-[3-Fluoro-4-[(6-methoxy-1,5-naphthyridin-4-yl)oxy]phenyl]-1-(4-fluoro-2-methylphenyl)-4,6-dimethyl-2-oxopyridine-3-carboxamide]
9 | < 100 | < 100 | < 100 | < 100 | COc1cnc2c(Oc3ccc(NC(=O)c4nccn(-c5ccc(F)cc5)c4=O)cc3F)ccnc2c1 [Compound 381, N-[3-fluoro-4-[(7-methoxy-1,5-naphthyridin-4-yl)oxy]phenyl]-4-(4-fluorophenyl)-3-oxopyrazine-2-carboxamide]
10 | < 100 | < 100 | < 100 | < 100 | COc1ccc2nccc(Oc3ccc(NC(=O)c4nccn(-c5ccc(F)cc5)c4=O)cc3)c2n1 [Compound 383, 4-(4-fluorophenyl)-N-[4-[(6-methoxy-1,5-naphthyridin-4-yl)oxy]phenyl]-3-oxopyrazine-2-carboxamide]
11 | < 100 | < 100 | < 100 | < 100 | COc1cc2nccc(Oc3ccc(NC(=O)c4ncc(C)n(-c5ccc(F)cc5C)c4=O)cc3F)c2nc1OC [Compound 393, N-[4-[(6,7-dimethoxy-1,5-naphthyridin-4-yl)oxy]-3-fluorophenyl]-4-(4-fluoro-2-methylphenyl)-5-methyl-3-oxopyrazine-2-carboxamide]
12 | < 100 | < 100 | < 100 | < 100 | COc1ccc2nccc(Oc3ccc(NC(=O)c4ccc(C)n(-c5ccc(F)cc5)c4=O)cc3F)c2c1 [Compound 346, N-[3-fluoro-4-(6-methoxyquinolin-4-yl)oxyphenyl]-1-(4-fluorophenyl)-6-methyl-2-oxopyridine-3-carboxamide]

Further lines, the compound ahead of its results:

Row | Compound | IC50 [1] [nM] | IC50 [2] [nM] | IC50 [3] [nM] | IC50 [4] [nM]
13 | COCc1c(-c2ccc(F)cc2)c(=O)c(C(=O)Nc2ccc(Oc3ccnc4cc(OC)c(OC)nc34)c(F)c2)cn1C [Compound 269, N-[4-[(6,7-Dimethoxy-1,5-naphthyridin-4-yl)oxy]-3-fluorophenyl]-5-(4-fluorophenyl)-6-(methoxymethyl)-1-methyl-4-oxopyridine-3-carboxamide] | < 100 | < 100 | < 100 | < 100
14 | CCn1cc(C(=O)Nc2ccc(Oc3ccnc4cc(OC)cnc34)c(F)c2)c(=O)c(-c2ccc(F)cc2C)c1CO [Compound 285, 1-Ethyl-N-[3-fluoro-4-[(7-methoxy-1,5-naphthyridin-4-yl)oxy]phenyl]-5-(4-fluoro-2-methylphenyl)-6-(hydroxymethyl)-4-oxopyridine-3-carboxamide] | < 100 | < 100 | < 100 | < 100
15 | COCc1c(-c2ccc(F)cc2)c(=O)c(C(=O)Nc2ccc(Oc3ccnc4cc(OC)cnc34)c(F)c2)cn1C [Compound 270, N-[3-Fluoro-4-[(7-methoxy-1,5-naphthyridin-4-yl)oxy]phenyl]-5-(4-fluorophenyl)-6-(methoxymethyl)-1-methyl-4-oxopyridine-3-carboxamide] | 100 to 300 | < 100 | < 100 | < 100
16 | COc1cc2nccc(Oc3ccc(NC(=O)c4c(C)cc(C)n(-c5ccc(F)cc5)c4=O)cc3F)c2nc1OC [Compound 279, N-[4-[(6,7-Dimethoxy-1,5-naphthyridin-4-yl)oxy]-3-fluorophenyl]-1-(4-fluorophenyl)-4,6-dimethyl-2-oxopyridine-3-carboxamide] | < 100 | < 100 | < 100 | < 100
17 | COc1cnc2c(Oc3ccc(NC(=O)c4cccn(-c5ccc(F)cc5)c4=O)cc3F)ccnc2c1 [Compound 291, N-[3-Fluoro-4-[(7-methoxy-1,5-naphthyridin-4-yl)oxy]phenyl]-1-(4-fluorophenyl)-2-oxopyridine-3-carboxamide] | < 100 | < 100 | < 100 | < 100
18 | CCn1cc(C(=O)Nc2ccc(Oc3ccnc4cc(OC)c(OC)nc34)c(F)c2)c(=O)c(-c2ccc(F)cc2)c1CO [Compound 271, N-[4-[(6,7-Dimethoxy-1,5-naphthyridin-4-yl)oxy]-3-fluorophenyl]-1-ethyl-5-(4-fluorophenyl)-6-(hydroxymethyl)-4-oxopyridine-3-carboxamide] | < 100 | < 100 | < 100 | < 100
19 | Cc1ccc(C(=O)Nc2ccc(Oc3ccnc4cc(OCc5ccccc5)cnc34)c(F)c2)c(=O)n1-c1ccc(F)cc1 [Compound 275, 1-(4-Fluorophenyl)-N-[3-fluoro-4-[(7-phenylmethoxy-1,5-naphthyridin-4-yl)oxy]phenyl]-6-methyl-2-oxopyridine-3-carboxamide] | < 100 | < 100 | 100 to 300 | < 100
20 | COc1ccc2nccc(Oc3ccc(NC(=O)c4c(C)cc(C)n(-c5ccc(F)cc5)c4=O)cc3F)c2n1 [Compound 281, N-[3-Fluoro-4-[(6-methoxy-1,5-naphthyridin-4-yl)oxy]phenyl]-1-(4-fluorophenyl)-4,6-dimethyl-2-oxopyridine-3-carboxamide] | < 100 | < 100 | < 100 | < 100
21 | COc1ccc2nccc(Oc3ccc(NC(=O)c4cccn(-c5ccc(F)cc5)c4=O)cc3F)c2n1 [Compound 292, N-[3-Fluoro-4-[(6-methoxy-1,5-naphthyridin-4-yl)oxy]phenyl]-1-(4-fluorophenyl)-2-oxopyridine-3-carboxamide] | < 100 | < 100 | < 100 | < 100
